The values that follow come from a melting point compilation (Tetko et al.; mined from patent text by program, amines drawn as free bases though some values may be those of a salt).

In the case of `O=[N+]([O-])c1cc(Br)ccc1-c1ccc(F)cc1F`, the melting point (as a rule, the temperature, or range, at which the solid turns liquid) lay within 52 to 53 °C.

In turn, `CC(O)C(C)(C)NC(=O)[C@@H]1CCCN1C(=O)[C@@H](O)[C@H](Cc1ccccc1)NC(=O)[C@H](CC(N)=O)NC(=O)OCc1ccccc1` (stereo partly drawn) came in with a melting point of 102 to 104 °C. As for `CNC(=O)N1CCN(C(=O)Cc2ccc(Cl)c(Cl)c2)C(CN2CCC(O)C2)C1` (stereo not drawn), the melting point came out at 57 °C. Compound `CC(C)(C)NC(=O)NCC#CCNC(=O)Nc1nc2c(s1)-c1c(cnn1-c1ccccc1)CC2` had a melting point of 196 °C. On to `COc1cc(C(=O)N2CCC(C(=O)C3CCCCC3)CC2)c([N+](=O)[O-])cc1OC`, for which the melting point was 120 to 125 °C. Compound `CC(C)(C)c1ccc(C(=O)N[C@H]2CC[C@H](CCN3CCN(c4nccc5c4CCO5)CC3)CC2)cc1` gave a melting point of 186 °C. `Cc1cc(C2=NOC(c3cc(Cl)cc(Cl)c3)(C(F)(F)F)C2)ccc1C(=O)NCC(F)(F)F` (stereo not drawn) yielded a melting point of 156 to 157 °C.

`O=C(OCc1ccccc1)C1Cc2sccc2C(=O)N1Cc1ccccc1` (stereo not drawn) came in with a melting point of 72 °C. In the case of `COC(=O)C(C)(C)c1ccc(C(=O)Nc2cn3cc(I)ccc3n2)cc1`, the melting point lay in the range of 234 to 235 °C. For `COc1cc(OC)nc(NC(=O)NS(=O)(=O)c2cccnc2-n2cncn2)n1` the value was 226 to 230 °C; for `COc1ccc(-c2nn(Cc3ccccc3)c(=O)cc2-c2ccc(Cl)cc2)cc1`, 165 to 167 °C. As for `O=S(=O)(Cc1ccc(Br)cc1)c1nc(-c2ccncc2)ns1`, the melting point turned out to be 173 °C. As for `COc1ccc(S(=O)(=O)N2C(=O)[C@@](c3ccccc3OC)(N3C[C@H](OC(=O)C4CCCCC4)C[C@H]3C(=O)N(C)C)c3cc(Cl)ccc32)c(OC)c1`, the melting point was in the range of 197 to 198 °C. `CC(C)(C)OC(=O)[C@@H]1CCCN1C(=O)C=CC(F)(F)F` yielded a melting point of 119 to 120 °C. Turning to `CNC1CCN(c2nc3ccccc3n2Cc2ccc(C#N)cc2)CC1`, the melting point is 133 °C.

`O=C1Nc2ccccc2SC1CCCCO` (stereo not drawn) showed a melting point of 101 to 102 °C. As for `Cc1oc(-c2ccc(C(F)(F)F)cc2)nc1-c1ccc2c(Br)c(OCC(=O)O)ccc2c1`, the melting point lay in the range of 212 to 214 °C. For `O=c1ccc2ccc(OCCCCN3CCCN(c4cccc(Cl)c4Cl)CC3)cc2[nH]1` the value was 55 to 57 °C. As for `COc1ccc(N2Cc3ccccc3P2(C)=O)cc1` (stereo not drawn), the melting point lay within 148 to 150 °C. For `Cc1c[nH]c(=O)nc1OCc1ccccc1`, the melting point lay in the range of 181 to 182 °C. For `COc1ccc(Cl)cc1C(=N)Nc1ccc(F)c(NC(=O)/C=C/c2ccccc2Cl)c1`, the melting point is 229 to 230 °C. Turning to `Cc1c(S(=O)(=O)c2ccc(Cl)cc2)csc1-c1nc(-c2c(F)cccc2F)nn1C`, the melting point lay within 183 to 185 °C. In turn, `CC1=C(Nc2ccc(C3=NNC(=O)CC3C)cc2)CCC1=O` (stereo not drawn) had a melting point of 285 to 286 °C. `CNc1coc2cc(NS(C)(=O)=O)c(Oc3ccccc3)cc2c1=O` came in with a melting point of 192 to 193 °C. For `COC(=O)C=Cc1ccc(Cl)c(Cl)c1` the value was 114 to 115 °C. For `COC(=O)c1ccccc1S(=O)(=O)NC(=O)c1nc(OC)cc(OC)n1` the value was 163 to 165 °C. For `CCCCc1nc2cccc(C(=O)O)c2n1Cc1ccc2nc(-c3ccccc3-c3nnn[nH]3)ncc2c1` the value was 188 to 191 °C; for `Cc1ccccc1C=CCC(C(=O)C=Cc1ccc(Cl)cc1)c1ccccc1` (stereo not drawn), 60 to 76 °C; for `C#CCN1C(=O)c2cccc3cccc1c23`, 183 to 186 °C.

`Cc1cc(N2CCN(C)CC2)n2nc(OCCO)c(S(=O)(=O)c3ccccc3)c2n1` yielded a melting point of 178 °C. For `CCCc1c(OCC2CO2)ccc(C(C)=O)c1O` (stereo not drawn) the value was 53 to 55 °C; for `CCCc1cc(C)nc(-c2cccc(Oc3ccccc3Cl)n2)n1`, 73.7 °C. For `CN1CCN(Cc2ccc(Cl)nc2)C1=N[N+](=O)[O-]`, the melting point was 165 to 167 °C.
